The text below walks through data of PMC3082566, “PTB Domain-Directed Substrate Targeting in a Tyrosine Kinase from the Unicellular Choanoflagellate Monosiga brevicollis” (PLoS ONE, 2011).

“Also recorded” adds a separate entry of the source.

Experiment [1] relates to HMTK1. In words: Binding of purified HMTK1 to immobilized pYEEI peptide. Details: species or system Monosiga brevicollis. The conditions noted are these: 20 µg protein, 30 µl immobilized peptide, 1 hour at 4°C; Coomassie; Fig. 3A. On the procedure: (§1) The PTB ligand-containing peptide, Phe-containing PTB control, and pYEEI peptide (EPQpYEEIG) were linked to Affi-Gel 15 resin (Bio-Rad) following the manufacturer's protocols. Purified HMTK1 or the isolated PTB domain were incubated for 1 hour at 4°C with the immobilized peptides. After binding, the beads were washed 4 times with 1 ml of binding buffer (50 mM Tris-HCl pH 7.5, 5 mM EDTA, 100 mM NaCl, 0.1% Triton X-100, 1 mM DTT, 0.5 mM Na3VO4). Bound proteins were eluted with SDS-PAGE loading buffer, separated by 10% SDS-PAGE, and visualized either by Coomassie blue staining or by Western blotting.
(§2) Figure 3 Binding reactions with pYEEI-containing peptide. (A). Purified HMTK1 or c-Src (20 µg) were mixed with 30 µl of immobilized pYEEI peptide (pY) or control resin (C) in total volumes of 175 µl for 1 hour at 4°C. After binding, the resins were washed 4 times with 200 µl of binding buffer. Bound proteins were eluted with SDS-PAGE sample buffer and analyzed by gel electrophoresis with Coomassie blue staining. (B). The isolated HMTK1 PTB domain (8 µg) was incubated with 50 µl of immobilized pYEEI peptide (pY) or control resin (C) in total volumes of 400 µl for 1 hour at 4°C. After washing, bound proteins were eluted with SDS-PAGE sample buffer and analyzed by Western blotting with anti-GST antibody. (C). […] After washing, bound proteins were analyzed by anti-FLAG Western blotting. […]

The subject of the next experiment is c-Src. In words: Binding of purified Src to immobilized pYEEI peptide. Conditions: positive control; 20 µg protein, 30 µl immobilized peptide, 1 hour at 4°C; Coomassie; Fig. 3A. On the procedure:
as §1, §2

The subject of experiment [2] is isolated HMTK1 PTB domain. In words: Pulldown of isolated HMTK1 PTB domain with immobilized pYEEI peptide. Format: binding, Monosiga brevicollis. The conditions noted are these: 8 µg PTB domain, 50 µl immobilized peptide, 1 hour at 4°C; anti-GST Western; Fig. 3B. On the procedure: HMTK1 was expressed in Spodoptera frugiperda (Sf9) insect cells using the Bac-to-Bac system (Invitrogen). Sf9 cells (800 ml) were infected with HMTK1 baculovirus and harvested after three days. Cells were lysed in a French pressure cell, and His-tagged HMTK1 was purified using nickel-nitrilotriacetic acid resin (Qiagen), as described previously. Peak fractions were pooled and concentrated in an Amicon Ultrafiltration device (molecular weight cutoff: 30,000 daltons). The purified protein was stored in 40% glycerol at −20°C. The isolated PTB domain of HMTK1 was produced as a fusion with glutathione S-transferase (GST). E. coli cells (1 liter) expressing the GST fusion protein were lysed in a French pressure cell, and the GST-PTB protein was purified by chromatography on a glutathione-agarose column (Molecular Probes).
The PTB ligand-containing peptide, Phe-containing PTB control, and pYEEI peptide (EPQpYEEIG) were linked to Affi-Gel 15 resin (Bio-Rad) following the manufacturer's protocols. […]
(§3) Figure 3 Binding reactions with pYEEI-containing peptide. […] Bound proteins were eluted with SDS-PAGE sample buffer and analyzed by gel electrophoresis with Coomassie blue staining. […] After washing, bound proteins were eluted with SDS-PAGE sample buffer and analyzed by Western blotting with anti-GST antibody. […] After washing, bound proteins were analyzed by anti-FLAG Western blotting. […]

In experiment [3] the test system is FLAG-tagged wild-type HMTK1. The experiment can be described thus: Pulldown of FLAG-tagged wild-type HMTK1 from SYF cell lysates with immobilized peptides. The class given is binding, Monosiga brevicollis. The conditions noted are these: immobilized peptide; anti-FLAG Western; Fig. 3C. On the procedure: (§4) For expression in insect cells, HMTK1 DNA (encoding residues 341–761) was cloned into the EcoRI site of pFastbac-Hta (Invitrogen). FLAG-tagged HMTK1 was expressed in mammalian cells by subcloning into the BglII and BamHI sites of p3XFLAG-CMV (Sigma). The ΔPTB version of this construct was prepared by PCR amplification and subsequent recloning into the BamHI and EcoRI sites of p3XFLAG-CMV. Site-directed mutagenesis of FLAG-HMTK1 was carried out using the QuikChange kit (Stratagene). To express the isolated third PTB domain (residues 341–474) in bacterial cells, this PCR fragment was cloned into the EcoRI site of plasmid pGEX-4T-1 (GE Healthcare). All constructs were confirmed by DNA sequencing.
(§5) The PTB ligand-containing peptide, Phe-containing PTB control, and pYEEI peptide (EPQpYEEIG) were linked to Affi-Gel 15 resin (Bio-Rad) following the manufacturer's protocols. Purified HMTK1 or the isolated PTB domain were incubated for 1 hour at 4°C with the immobilized peptides. […]
as §3

Another experiment concerns FLAG-tagged ΔPTB HMTK1. In words: Pulldown of FLAG-tagged ΔPTB HMTK1 from SYF cell lysates with immobilized pYEEI. Format: binding, Monosiga brevicollis. The conditions noted are these: immobilized peptide; anti-FLAG Western; Fig. 3C. On the procedure:
as §4, §5, §3

Experiment [4] has as its system HMTK1. The experiment can be described thus: Binding of purified HMTK1 to immobilized PTB ligand peptides. Conditions: 6.6 µg HMTK1; peptide on Affi-Gel resin; 1 hour at 4°C; anti-His6 Western; Fig. 5A. Details: species or system Monosiga brevicollis. On the procedure: as §1
Figure 5 Substrate targeting by PTB ligand. (A) Purified HMTK1 (6.6 µg) was incubated with PTB ligand-containing substrate ([…]pYATLG), PTB control substrate ([…]), pYEEI peptide, or control resin in final volumes of 60 µl. After washing, bound proteins were eluted with SDS-PAGE sample buffer and analyzed by Western blotting with anti-His6-tag antibody. (B) The kinase activity of HMTK1 (300 nM) toward the PTB ligand-containing substrate or PTB control substrate (shown schematically) was determined using the phosphocellulose paper assay. The reaction contained 20 mM Tris-HCl (pH 7.4), 10 mM MgCl2, 0.2 mM ATP, 30 µM peptide, and [γ-^32P]-ATP. […] Incorporation of ^32P into the peptides was determined by scintillation counting.

The subject of experiment [5] is HMTK1. The experiment can be described thus: Substrate targeting: phosphorylation of PTB ligand-containing substrate and control by HMTK1. The class given is biochemical, Monosiga brevicollis. Conditions: 30 µM peptide, 300 nM HMTK1, 20 mM Tris-HCl pH 7.4, 10 mM MgCl2, 0.2 mM ATP, Fig. 5B. On the procedure: Kinase assays were performed by two methods. Initial activity measurements were performed by the phosphocellulose paper binding assay. Reaction mixtures contained 20 mM Tris-HCl (pH 7.4), 10 mM MgCl2, 0.2 mM ATP, [γ-^32P]-ATP (30–50 cpm/pmol), and varying amounts of HMTK1 and peptide substrates. All peptide substrates were purified by high pressure liquid chromatography and characterized by mass spectrometry prior to use. The following substrates were used: c-Src peptide, […]; MbSTAT peptide, […]; RTKB2 peptide 1, […]; RTKB2 peptide 2, […]; SH2 binding substrates (varying linker lengths), […]pYEEIG, […]pYEEIG, and […]pYEEIG; SH2 control substrate, […]. […] Kinetic constants were determined by nonlinear fitting to the [substrate] vs. velocity curves using GraphPad Prism 4.
Figure 5 Substrate targeting by PTB ligand. […] After washing, bound proteins were eluted with SDS-PAGE sample buffer and analyzed by Western blotting with anti-His6-tag antibody. (B) The kinase activity of HMTK1 (300 nM) toward the PTB ligand-containing substrate or PTB control substrate (shown schematically) was determined using the phosphocellulose paper assay. […] Incorporation of ^32P into the peptides was determined by scintillation counting.

The test system of experiment [6] is HMTK1. In words: Steady-state kinetics, continuous spectrophotometric assay. Format: biochemical, Monosiga brevicollis. The conditions noted are these: HMTK1 0.3–0.5 µM, peptide 0–700 µM, 100 mM Tris pH 7.4, 10 mM MgCl2, 2 mM ATP, 30°C. On the procedure: Kinase assays were performed by two methods. Initial activity measurements were performed by the phosphocellulose paper binding assay. Reaction mixtures contained 20 mM Tris-HCl (pH 7.4), 10 mM MgCl2, 0.2 mM ATP, [γ-^32P]-ATP (30–50 cpm/pmol), and varying amounts of HMTK1 and peptide substrates. All peptide substrates were purified by high pressure liquid chromatography and characterized by mass spectrometry prior to use. The following substrates were used: c-Src peptide, […]; MbSTAT peptide, […]; RTKB2 peptide 1, […]; RTKB2 peptide 2, […]; SH2 binding substrates (varying linker lengths), […]pYEEIG, […]pYEEIG, and […]pYEEIG; SH2 control substrate, […]. Initial rate kinetic measurements on the PTB ligand-containing substrate ([…]pYATLG) and on the Phe-containing PTB control ([…]) were carried out using a continuous spectrophotometric assay. Reactions were performed at 30°C in a final volume of 50 µl. The reactions contained 100 mM Tris pH 7.4, 10 mM MgCl2, 2 mM ATP, 1.5 mM phosphoenolpyruvate, 90 units/ml of pyruvate kinase, 109 units/ml of lactate dehydrogenase, and 1.2 mg/ml of NADH. For determination of Km values, the enzyme concentrations were 0.3–0.5 µM and the peptide concentrations ranged from 0–700 µM. Kinetic constants were determined by nonlinear fitting to the [substrate] vs. velocity curves using GraphPad Prism 4.

A further experiment relates to Hck. Conditions: Src family kinase Hck with the same peptide; ref [24]; cited from earlier work. From the text: We selected a pair of peptides for further study. […] We synthesized an individual peptide in which the sequence NFTNPVpYATG was connected to a tyrosine kinase substrate sequence.
In another experiment the test system is HMTK1 PTB domain. The experiment can be described thus: Peptide array (PepSpots) probed with biotinylated HMTK1 PTB domain. Format: binding, Monosiga brevicollis. Conditions: 10 µg/ml PTB, 5% BSA, 20 mM Hepes pH 7.3, 30 min at room temperature; streptavidin-HRP chemiluminescence; Fig. 4A. From the text: The PTB domain of HMTK1 was cloned as an EcoR1 fragment into a modified pGEX (GE Healthcare Life Sciences) bicistronic vector pGEX-4T-BiotinN to express the gene of interest and the biotin ligase (BirA) in the same cell ([19]; Chan et al., in press). […] The resulting pGEX-BiotinN-PTB construct was transformed into E. coli BL21(DE3) cells for expression. GST-biotin-PTB protein was purified using glutathione-agarose and desalted using a PD-10 (GE Healthcare) gel filtration column.
N-terminally acetylated 11-residue peptides were synthesized using standard chemistry in situ (PepSpots) on cellulose based matrix (Jerini Biotools). To ensure protein accessibility, each peptide contained a 4-residue spacer consisting of a glycine and 3 β-alanines. All peptides were immobilized via their C-termini. […] Prior to usage, peptide array membranes were washed in binding buffer (20 mM Hepes pH 7.3, 137 mM NaCl, 5 mM KCl, 0.05% Tween-20) and blocked with 5% filtered bovine serum albumin in the same buffer. […] After washing in binding buffer (3×10 min), bound PTB was detected using enhanced chemiluminescence and standard X-ray film.
Figure 4 Peptide array experiment. […] Bound PTB domain was detected using streptavidin-HRP and enhanced chemiluminescence. […]

A further experiment deals with SYF cells. In words: Anti-phosphotyrosine Western blotting of SYF cell lysates. The conditions noted are these: 0.1 or 1.0 mM sodium orthovanadate, 20 minutes, 37°C; Fig. S4B. Format: cell-based, mammalian.

Method for SYF cells: SYF cells were cultured in Dulbecco's modified Eagle's medium (Mediatech, Inc.) supplemented with 10% fetal bovine serum (Sigma) and 1000 UI/ml penicillin, 1000 UI/ml streptomycin and 25 ng/ml amphotericin B (Mediatech, Inc.). SYF cells (2.25×10^6) were plated in 15-cm diameter dishes and transfected after 24 hours using 5–15 µg of DNA and 2 µl TransIT per µg DNA. After 48 hours, the cells were harvested, washed twice with PBS and lysed using radioimmune precipitation assay (RIPA) buffer (50 mM Tris-HCl pH 7.4, 150 mM NaCl, 5 mM EDTA, 1% sodium deoxycholate, 1% Nonidet P-40) supplemented with the protease inhibitors leupeptin (10 µg/ml), aprotinin (10 µg/ml), PMSF (200 µM) and the phosphatase inhibitors Na3VO4 (0.2 mM) and NaF (10 mM). Lysates (50 µg) were separated by 10% SDS-PAGE, transferred to PVDF membranes and probed with the appropriate antibodies. For immunoprecipitation, cell lysates (100 µg) were incubated overnight at 4°C with 40 µl of EZview red anti-Flag M2 affinity gel pre-equilibrated with RIPA buffer in a total volume of 1 ml. The immunocomplexes were washed 4 times, eluted from the beads by adding Laemmli buffer, separated by SDS-PAGE, transferred to PVDF membranes and probed with the appropriate antibodies.
Whole cell lysates were analyzed by SDS-PAGE and Western blotting with anti-pTyr, anti-FLAG, or anti-tubulin antibodies, as indicated. […]

With “EPQpYEEIG [Src SH2 ligand peptide linked to Affi-Gel 15 resin]”, the “binding to purified HMTK1” value in the experiment on HMTK1 [1] is “bound”. Also, the “binding to purified Src” value in the experiment with c-Src is “bound”. In addition, the “binding to isolated HMTK1 PTB domain” value in experiment [2] was “pYEEI-binding activity was localized to the PTB domain; also recorded: bound”. Further, the “binding to wild-type HMTK1 (SYF lysate)” value in experiment [3] is reported as “bound”. Besides, the “binding to ΔPTB HMTK1 (SYF lysate)” value in the experiment on FLAG-tagged ΔPTB HMTK1 is “did not”.

What is called Km is the concentration of substrate that gives half-maximal velocity. For the substance “KKAEEEIYGEFEANFTNPVpYATLG [pTyr peptide]”, the “binding to purified HMTK1” value with HMTK1 [4] was “bound”. The “phosphorylation by HMTK1 compared to Phe control” value in the experiment on HMTK1 [5] (listed as pTyr-containing peptide) is “preferentially phosphorylated”; with HMTK1 [5] (listed as synthetic peptide containing this sequence (with pTyr)) it was “phosphorylated more efficiently”. For the same substance, in the experiment with HMTK1 [6], the Vmax was 4.9 µmol/min/mg enzyme. The Km with HMTK1 [6] (nonlinear fitting) stood at 33 µM. Also, in the experiment on Hck, the “Vmax (Hck)” value is reported as 3.0 µmol/min/mg enzyme.

As for TNFTNPVYATLG, in the experiment on HMTK1 PTB domain, the “binding of biotinylated PTB domain to array peptides, phosphorylated vs unphosphorylated” value is “bound much more strongly in the phosphorylated state”.

As for sodium orthovanadate, in the experiment on SYF cells, the “overall phosphorylation in SYF cells” value is on record as “enhanced overall phosphorylation”.
